Experimental findings from US10336739B2, “4-hydroxy-3-(heteroaryl)pyridine-2-one APJ agonists” (BRISTOL-MYERS SQUIBB COMPANY, priority 2015, dated 2019) are described below.

This assay addresses human APJ receptor (Homo sapiens (Human), UniProt P35414). Kind of assay: Intracellular cAMP accumulation assay (APJ hcAMP, HTRF). The class given is cell-based. Conditions: HEK293 cells stably expressing human APJ receptor; inhibition of forskolin-mediated cAMP production; read-out: hAPJ cAMP EC50 Potency range. Here is the method:
Intracellular cAMP Accumulation Assay
HEK293 cells stably expressing human APJ receptor were used to assess the activity of compounds. Cultured cells were detached and resuspended in the cAMP Homogeneous Time-Resolved Fluorescence (HTRF) assay buffer (Cisbio cat; #62AM4PEJ). The assay was performed in 384-well assay plates (Perkin-Elmer; cat #6008289) according to assay protocol provided by the manufacturer. Serial dilutions of a compound together with assay buffer containing […] and 2 μM forskolin were added to each well containing 5,000 cells and incubated for 30 minutes at room temperature. Subsequently, cAMP D2 reagent was added in the lysis buffer followed by the EuK antibody (Cisbio; cat #62AM4PEJ) and incubated for 60 min. The fluorescence emission ratio was measured using fluorometer. The intracellular cAMP concentrations (compound-stimulated inhibition of forskolin-mediated cAMP production) were calculated by extrapolation from a standard curve using known cAMP concentrations. The EC50 values were obtained by fitting the data to a sigmoidal concentration-response curve with variable slope.
(cAMP levels reflect the balance of adenylyl cyclase and phosphodiesterase activity.)

The term pEC50 denotes the EC50 on a negative log10 scale, so that one unit is a factor of ten.

pEC50: −log10 of the molar value.

Sequence of human APJ receptor (P35414 whole entry): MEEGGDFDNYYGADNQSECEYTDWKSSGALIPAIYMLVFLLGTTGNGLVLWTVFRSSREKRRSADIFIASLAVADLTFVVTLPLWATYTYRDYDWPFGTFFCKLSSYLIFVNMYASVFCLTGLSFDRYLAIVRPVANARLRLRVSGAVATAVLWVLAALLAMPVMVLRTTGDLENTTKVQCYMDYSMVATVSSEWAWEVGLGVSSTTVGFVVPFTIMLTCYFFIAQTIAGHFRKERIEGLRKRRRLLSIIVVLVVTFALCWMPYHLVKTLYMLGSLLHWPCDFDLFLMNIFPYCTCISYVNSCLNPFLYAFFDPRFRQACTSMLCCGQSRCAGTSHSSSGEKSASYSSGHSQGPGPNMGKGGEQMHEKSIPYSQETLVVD

On to `CCCCc1nc(O)c(-c2nnc(Cc3noc4ccccc34)o2)c(O)c1-c1c(OC)cccc1OC` [Example 20, 3-[5-(1,2-benzoxazol-3-ylmethyl)-1,3,4-oxadiazol-2-yl]-6-butyl-5-(2,6-dimethoxyphenyl) pyridine-2,4-diol], for which the pEC50 was 8.00 to 11.00.

As to `CCCCc1nc(O)c(-c2nnc(Cc3cnccn3)o2)c(O)c1-c1c(OC)cccc1OC` [Example 21, 6-butyl-5-(2,6-dimethoxyphenyl)-3-[5-(pyrazin-2-ylmethyl)-1,3,4-oxadiazol-2-yl]pyridine-2,4-diol], the pEC50 is 8.00 to 11.00. For the compound `CCCCc1nc(O)c(-c2nnc(Cc3cncnc3)o2)c(O)c1-c1c(OC)cccc1OC` [Example 22, 6-butyl-5-(2,6-dimethoxyphenyl)-3-[5-(pyrimidin-5-ylmethyl)-1,3,4-oxadiazol-2-yl]pyridine-2,4-diol], the pEC50 was 7.00 to 8.00. For `CCCCc1nc(O)c(-c2nnc(Cc3cccc(Cl)c3)o2)c(O)c1-c1c(OC)cccc1OC` [Example 23, 6-butyl-3-{5-[(3-chlorophenyl)methyl]-1,3,4-oxadiazol-2-yl}-5-(2,6-dimethoxyphenyl) pyridine-2,4-diol], the negative logarithm of the EC50 (pEC50) was 8.00 to 11.00. As for `CCCCc1nc(O)c(-c2nnc(C(F)(F)c3ccccc3)o2)c(O)c1-c1c(OC)cccc1OC` [Example 24, 6-butyl-3-{5-[difluoro(phenyl)methyl]-1,3,4-oxadiazol-2-yl}-5-(2,6-dimethoxyphenyl) pyridine-2,4-diol], the figure is 7.00 to 8.00; as for `CCCCc1nc(O)c(-c2nnc(Cc3nc4ccccc4o3)o2)c(O)c1-c1c(OC)cccc1OC` [Example 25, 3-[5-(1,3-benzoxazol-2-ylmethyl)-1,3,4-oxadiazol-2-yl]-6-butyl-5-(2,6-dimethoxyphenyl) pyridine-2,4-diol], 8.00 to 11.00. Regarding `CCCCc1nc(O)c(-c2nnc(Cc3noc4ccccc34)o2)c(O)c1-c1c(OC)cc(C)cc1OC` [Example 26, 3-[5-(1,2-benzoxazol-3-ylmethyl)-1,3,4-oxadiazol-2-yl]-6-butyl-5-(2,6-dimethoxy-4-methylphenyl) pyridine-2,4-diol], the negative logarithm of the EC50 (pEC50) is 8.00 to 11.00.

For the compound `C=CCCc1nc(O)c(-c2nnc(Cc3noc4ccccc34)o2)c(O)c1-c1c(OC)cccc1OC` [Example 27, 3-[5-(1,2-benzoxazol-3-ylmethyl)-1,3,4-oxadiazol-2-yl]-6-(but-3-en-1-yl)-5-(2,6-dimethoxyphenyl) pyridine-2,4-diol], the pEC50 is 8.00 to 11.00. As for `CCCCc1nc(O)c(-c2nnc(CCc3ncc(-c4ccccc4)o3)o2)c(O)c1-c1c(OC)cccc1OC` [Example 28, 6-butyl-5-(2,6-dimethoxyphenyl)-3-{5-[2-(5-phenyl-1,3-oxazol-2-yl)ethyl]-1,3,4-oxadiazol-2-yl}pyridine-2,4-diol], the figure is 7.00 to 8.00. The result for `CCCCc1nc(O)c(-c2nnc(CCc3nccn3C)o2)c(O)c1-c1c(OC)cccc1OC` [Example 29, 6-butyl-5-(2,6-dimethoxyphenyl)-3-{5-[2-(1-methyl-1H-imidazol-2-yl)ethyl]-1,3,4-oxadiazol-2-yl}pyridine-2,4-diol] reads 8.00 to 11.00; that for `CCCCc1nc(O)c(-c2nnc(Cc3ccc(Cl)nc3)o2)c(O)c1-c1c(OC)cccc1OC` [Example 30, 6-butyl-3-{5-[(6-chloropyridin-3-yl)methyl]-1,3,4-oxadiazol-2-yl}-5-(2,6-dimethoxyphenyl) pyridine-2,4-diol], 8.00 to 11.00; that for `CCCCc1nc(O)c(-c2nnc(C(C)(C)c3ccc(Cl)cc3)o2)c(O)c1-c1c(OC)cccc1OC` [Example 31, 6-butyl-3-{5-[2-(4-chlorophenyl)propan-2-yl]-1,3,4-oxadiazol-2-yl}-5-(2,6-dimethoxyphenyl) pyridine-2,4-diol], 8.00 to 11.00. For `CCCCc1nc(O)c(-c2nnc(Cc3ccc(F)cc3)o2)c(O)c1-c1c(OC)cccc1OC` [Example 32, 6-butyl-5-(2,6-dimethoxyphenyl)-3-{5-[(4-fluorophenyl)methyl]-1,3,4-oxadiazol-2-yl}pyridine-2,4-diol], the pEC50 is 8.00 to 11.00.
